Results as given in PubChem BioAssay AID1996.
In brackets after ≈: the same amount, converted by molar mass.

conditions: buffer; pH 7.4; 200.0 µM

SMILES | solubility kinetic [µg/mL]
COn1c(=O)c(-c2ccccc2)[n+]([O-])c2ccccc21 | > 40.2
N=C1S/C(=C\c2ccco2)C(=O)N1c1nccs1 | 17.9 (≈ 64.5 µM)
CC(C)c1ccc(C(N)=S)cc1 | 25.3 (≈ 141 µM)
COc1ccccc1CNC(=O)COC(=O)c1cccs1 | 8.4 (≈ 27.5 µM)
CCCCN(C(=O)Oc1ccccc1)C1CCS(=O)(=O)C1 (stereo not drawn) | > 46.7
O=C(N/N=C/c1ccoc1)c1ccc(Cl)cc1Cl | > 42.5
CC1CN(CCc2ccccc2)C(C)C/C1=N/O (stereo not drawn) | 32 (≈ 130 µM)
COc1ccc(NCc2ccsc2)cc1 | 31.4 (≈ 143 µM)
CCS(=O)(=O)N1CCC(N2CCN(c3ccccc3)CC2)CC1 | 49.6 (≈ 147 µM)
CN(C)c1ccc(/C=C/C(=O)c2cccnc2)cc1 | 9.5 (≈ 37.7 µM)
Clc1cccc(C2NCc3ccccc3-n3cccc32)c1 (stereo not drawn) | 3.5 (≈ 11.9 µM)
CCCOc1ccc(-c2c(=O)n(O)c3ccccc3[n+]2[O-])cc1 | > 46.8
NC(=O)c1cc(-c2csc(-c3cccnc3)n2)ccc1O | 5.2 (≈ 17.5 µM)
COc1ccc(N2C(=O)C(C)C(Cc3ccc(C)cc3)C2=O)cc1 (stereo not drawn) | 2.4 (≈ 7.42 µM)
CSc1cccc(NC(=S)N(C(C)C)C(C)c2ccccn2)c1 (stereo not drawn) | 9.6 (≈ 27.8 µM)
COP(=O)(OC)C(NC(=O)Nc1ccccc1)c1ccccc1 (stereo not drawn) | 43.9 (≈ 131 µM)
Cc1ccc(C)c(OCCNc2ccc([N+](=O)[O-])cn2)c1 | 0.4 (≈ 1.39 µM)
Cc1cccc(NC(=O)Cc2ccc(Br)cc2)n1 | 38.6 (≈ 126 µM)
c1ccc(CCNc2cnccn2)cc1 | > 29.9
O=C(CN1C(=O)c2ccccc2C1=O)Nc1ccc(Cl)cn1 | 4.6 (≈ 14.6 µM)
Cc1cc(Cl)c(Cl)cc1S(=O)(=O)NCCCn1ccnc1 | 45.2 (≈ 130 µM)
COc1ccc(C2(c3ccc(OC)cc3)NC(=O)N(CC(=O)NC3CCS(=O)(=O)C3)C2=O)cc1 (stereo not drawn) | > 73.1
N#Cc1cccnc1Oc1ccccc1 | 25.3 (≈ 129 µM)

Other lines, results leading:

solubility kinetic [µg/mL] | SMILES
> 32.7 | CCn1c(=O)ccc2cc([N+](=O)[O-])ccc21
> 44 | CC1(C(=O)O)CCC(C(=O)Nc2cccc(F)c2)C1(C)C (stereo not drawn)
> 41.1 | CC1Oc2ccccc2N(CC(=O)N2CCCC2)C1=O (stereo not drawn)
4.8 (≈ 15.1 µM) | CCOc1ccc(CC(=O)Nc2cc(=O)n(C)c(=O)n2C)cc1
15.4 (≈ 49 µM) | CC(C)(C)c1ccc(/C=C2/SC(N3CCCC3)=NC2=O)cc1
41.3 (≈ 117 µM) | O=S(=O)(Nc1ccc(N2CCCCC2)cc1)c1ccc(F)cc1F
> 51.8 | Cc1ccsc1/C=N/NC(=O)C1CC(=O)N(c2ccc(F)cc2)C1 (stereo not drawn)
< 0.3 | COc1ccc(C(=O)Nc2cc(-c3ccc(C)cc3)no2)cc1
> 32.9 | Cc1ccc(C(=O)O)cc1N1CCCC1=O
15.4 (≈ 34.8 µM) | O=C(NCC(=O)N1CCN(C/C=C/c2ccccc2)CC1)c1ccc(Br)cc1
29.5 (≈ 99.1 µM) | O=C(c1ccccc1Cl)N1CCn2c1nc1ccccc12
39.6 (≈ 142 µM) | CC(=O)Nc1ccc(C(=O)NCCCOC(C)C)cc1
9.5 (≈ 28.8 µM) | Cc1ccc(SCCNC(=O)c2ccc([N+](=O)[O-])c(C)c2)cc1
42.8 (≈ 143 µM) | COC(=O)C1=C(C)N(CCc2c[nH]c3ccccc23)C(=O)C1
6.4 (≈ 20.3 µM) | Cc1cnc(NC(=O)c2sc(Nc3ccccc3)nc2N)o1
38.1 (≈ 114 µM) | O=C(Nc1cc(Cl)ccc1N1CCOCC1)c1ccc(=O)[nH]c1
13.7 (≈ 44.1 µM) | Cc1cc(C)cc(NC(=O)C2CCN(c3cnccn3)CC2)c1
7.9 (≈ 23.2 µM) | CC(=O)N1CCN(c2nc3ccc(Br)cc3s2)CC1
11.3 (≈ 37.8 µM) | O=C(Cn1cc([N+](=O)[O-])ccc1=O)N1CCc2ccccc21
26.2 (≈ 121 µM) | Cc1ccc(NC(=O)c2cc(C)no2)cc1
